For this assay, the target named is T1, CaCYP707A2 (Capsicum annuum, UniProt X2C029).
T1 construct: gene CYP707A70; full-length, no N-terminal modification; pCW ori(+) in E. coli Rosetta (DE3) pLysS; 54 kDa
T1 sequence (X2C029 1-477): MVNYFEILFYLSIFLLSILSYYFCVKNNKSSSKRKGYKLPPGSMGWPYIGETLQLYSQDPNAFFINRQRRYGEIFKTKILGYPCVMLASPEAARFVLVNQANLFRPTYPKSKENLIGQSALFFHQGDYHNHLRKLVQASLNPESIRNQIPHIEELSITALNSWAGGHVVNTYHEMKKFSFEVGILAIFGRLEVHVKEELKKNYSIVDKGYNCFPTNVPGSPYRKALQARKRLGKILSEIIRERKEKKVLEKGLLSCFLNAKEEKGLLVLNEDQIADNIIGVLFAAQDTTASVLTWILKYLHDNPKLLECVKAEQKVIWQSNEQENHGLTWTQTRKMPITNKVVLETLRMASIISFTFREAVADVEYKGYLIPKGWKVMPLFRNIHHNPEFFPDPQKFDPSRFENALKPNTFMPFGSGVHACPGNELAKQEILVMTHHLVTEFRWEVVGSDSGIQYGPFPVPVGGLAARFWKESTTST
Briefly: spectral binding titration (type I UV-visible difference spectrum).

This is an account of results in article PMC10084752, “Heterologous Expression of the Hot Pepper ABA 8’-Hydroxylase in Escherichia coli for Phaseic Acid Production” (Journal of Microbiology and Biotechnology, 2023).

Usually Kd stands for the constant that tells how readily two partners part at equilibrium.

For `CC1=CC(=O)CC(C)(C)C1(O)/C=C/C(C)=C\C(=O)O` (stereo in doubt) [(+)-ABA], the affinity, expressed as Kd, was 5.8 ± 0.93 µM.
